Data from PubChem BioAssay AID1259407 (Chemical Carcinogenesis Research Information System (CCRIS), 2018).
Calls of active or inactive are those of the source. No rule for the calls is given here.

System: CCRIS mutagenicity, Ames/micronucleus/aberration tests
Test: CCRIS mutagenicity studies
[1] = Test System: AMES SALMONELLA TYPHIMURIUM, Strain/Indicator: TA97, Metabolic Activation: NONE, Method: PREINCUBATION
[2] = Test System: AMES SALMONELLA TYPHIMURIUM, Strain/Indicator: TA98, Metabolic Activation: NONE, Method: PREINCUBATION
[3] = Test System: AMES SALMONELLA TYPHIMURIUM, Strain/Indicator: TA100, Metabolic Activation: NONE, Method: PREINCUBATION
[4] = Test System: AMES SALMONELLA TYPHIMURIUM, Strain/Indicator: TA1535, Metabolic Activation: NONE, Method: PREINCUBATION
[5] = Test System: AMES SALMONELLA TYPHIMURIUM, Strain/Indicator: TA100, Metabolic Activation: NONE, Method: STANDARD PLATE
[6] = Test System: AMES SALMONELLA TYPHIMURIUM, Strain/Indicator: TA1537, Metabolic Activation: NONE, Method: PREINCUBATION

Measured: mutagenic call

CCCCC(C=O)CC (stereo not drawn)
inactive: Test System: AMES SALMONELLA TYPHIMURIUM, Strain/Indicator: TA97, Metabolic Activation: HAMSTER, LIVER, S-9, AROCLOR 1254 (10%), Method: PREINCUBATION inactive; negative | Test System: AMES SALMONELLA TYPHIMURIUM, Strain/Indicator: TA97, Metabolic Activation: HAMSTER, LIVER, S-9, AROCLOR 1254 (30%), Method: PREINCUBATION inactive; negative | [1] inactive; negative | Test System: AMES SALMONELLA TYPHIMURIUM, Strain/Indicator: TA97, Metabolic Activation: RAT, LIVER, S-9, AROCLOR 1254 (10%), Method: PREINCUBATION inactive; negative | Test System: AMES SALMONELLA TYPHIMURIUM, Strain/Indicator: TA97, Metabolic Activation: RAT, LIVER, S-9, AROCLOR 1254 (30%), Method: PREINCUBATION inactive; negative | Test System: AMES SALMONELLA TYPHIMURIUM, Strain/Indicator: TA98, Metabolic Activation: HAMSTER, LIVER, S-9, AROCLOR 1254 (10%), Method: PREINCUBATION inactive; negative | Test System: AMES SALMONELLA TYPHIMURIUM, Strain/Indicator: TA98, Metabolic Activation: HAMSTER, LIVER, S-9, AROCLOR 1254 (30%), Method: PREINCUBATION inactive; negative | [2] inactive; negative | Test System: AMES SALMONELLA TYPHIMURIUM, Strain/Indicator: TA98, Metabolic Activation: RAT, LIVER, S-9, AROCLOR 1254 (10%), Method: PREINCUBATION inactive; negative | Test System: AMES SALMONELLA TYPHIMURIUM, Strain/Indicator: TA98, Metabolic Activation: RAT, LIVER, S-9, AROCLOR 1254 (30%), Method: PREINCUBATION inactive; negative | Test System: AMES SALMONELLA TYPHIMURIUM, Strain/Indicator: TA100, Metabolic Activation: HAMSTER, LIVER, S-9, AROCLOR 1254 (10%), Method: PREINCUBATION inactive; negative | Test System: AMES SALMONELLA TYPHIMURIUM, Strain/Indicator: TA100, Metabolic Activation: HAMSTER, LIVER, S-9, AROCLOR 1254 (30%), Method: PREINCUBATION inactive; negative | [3] inactive; negative | Test System: AMES SALMONELLA TYPHIMURIUM, Strain/Indicator: TA100, Metabolic Activation: RAT, LIVER, S-9, AROCLOR 1254 (10%), Method: PREINCUBATION inactive; negative | Test System: AMES SALMONELLA TYPHIMURIUM, Strain/Indicator: TA100, Metabolic Activation: RAT, LIVER, S-9, AROCLOR 1254 (30%), Method: PREINCUBATION inactive; negative | Test System: AMES SALMONELLA TYPHIMURIUM, Strain/Indicator: TA1535, Metabolic Activation: HAMSTER, LIVER, S-9, AROCLOR 1254 (10%), Method: PREINCUBATION inactive; negative | Test System: AMES SALMONELLA TYPHIMURIUM, Strain/Indicator: TA1535, Metabolic Activation: HAMSTER, LIVER, S-9, AROCLOR 1254 (30%), Method: PREINCUBATION inactive; negative | [4] inactive; negative | Test System: AMES SALMONELLA TYPHIMURIUM, Strain/Indicator: TA1535, Metabolic Activation: RAT, LIVER, S-9, AROCLOR 1254 (10%), Method: PREINCUBATION inactive; negative | Test System: AMES SALMONELLA TYPHIMURIUM, Strain/Indicator: TA1535, Metabolic Activation: RAT, LIVER, S-9, AROCLOR 1254 (30%), Method: PREINCUBATION inactive; negative

COc1ccccc1NCSC
active: Test System: AMES SALMONELLA TYPHIMURIUM, Strain/Indicator: TA98, Metabolic Activation: RAT, LIVER, S-9, AROCLOR 1254, Method: SPOT TEST active; positive | Test System: AMES SALMONELLA TYPHIMURIUM, Strain/Indicator: TA100, Metabolic Activation: NONE, Method: SPOT TEST active; positive | Test System: AMES SALMONELLA TYPHIMURIUM, Strain/Indicator: TA100, Metabolic Activation: RAT, LIVER, S-9, AROCLOR 1254, Method: SPOT TEST active; positive | Test System: AMES SALMONELLA TYPHIMURIUM, Strain/Indicator: TA102, Metabolic Activation: RAT, LIVER, S-9, AROCLOR 1254, Method: SPOT TEST active; positive
inactive: Test System: AMES SALMONELLA TYPHIMURIUM, Strain/Indicator: TA98, Metabolic Activation: NONE, Method: SPOT TEST inactive; negative | Test System: AMES SALMONELLA TYPHIMURIUM, Strain/Indicator: TA102, Metabolic Activation: NONE, Method: SPOT TEST inactive; negative

CC(/C=C(/C#N)c1ccc(Cl)c(Cl)c1)C(c1ccccc1)C(C#N)c1ccc(Cl)c(Cl)c1 (stereo not drawn)
active: [5] active; positive

CC1=CC[C@H]2C(C)=CC[C@@H](C(C)C)[C@@H]2C1
inactive: End Point: IN VITRO CHROMOSOMAL ABERRATIONS, Test System: CHINESE HAMSTER OVARY CELLS, Metabolic Activation: NONE inactive; negative | End Point: IN VITRO CHROMOSOMAL ABERRATIONS, Test System: CHINESE HAMSTER OVARY CELLS, Metabolic Activation: RAT, LIVER, S-9, AROCLOR 1254 inactive; negative | Test System: AMES SALMONELLA TYPHIMURIUM, Strain/Indicator: TA98, Metabolic Activation: HAMSTER, LIVER, S-9, AROCLOR 1254, Method: PREINCUBATION inactive; negative | [2] inactive; negative | Test System: AMES SALMONELLA TYPHIMURIUM, Strain/Indicator: TA98, Metabolic Activation: RAT, LIVER, S-9, AROCLOR 1254, Method: PREINCUBATION inactive; negative | Test System: AMES SALMONELLA TYPHIMURIUM, Strain/Indicator: TA100, Metabolic Activation: HAMSTER, LIVER, S-9, AROCLOR 1254, Method: PREINCUBATION inactive; negative | [3] inactive; negative | Test System: AMES SALMONELLA TYPHIMURIUM, Strain/Indicator: TA100, Metabolic Activation: RAT, LIVER, S-9, AROCLOR 1254, Method: PREINCUBATION inactive; negative | Test System: AMES SALMONELLA TYPHIMURIUM, Strain/Indicator: TA1535, Metabolic Activation: HAMSTER, LIVER, S-9, AROCLOR 1254, Method: PREINCUBATION inactive; negative | [4] inactive; negative | Test System: AMES SALMONELLA TYPHIMURIUM, Strain/Indicator: TA1535, Metabolic Activation: RAT, LIVER, S-9, AROCLOR 1254, Method: PREINCUBATION inactive; negative | Test System: AMES SALMONELLA TYPHIMURIUM, Strain/Indicator: TA1537, Metabolic Activation: HAMSTER, LIVER, S-9, AROCLOR 1254, Method: PREINCUBATION inactive; negative | [6] inactive; negative | Test System: AMES SALMONELLA TYPHIMURIUM, Strain/Indicator: TA1537, Metabolic Activation: RAT, LIVER, S-9, AROCLOR 1254, Method: PREINCUBATION inactive; negative

O=C(O)Cc1ccc(O)c(O)c1
active: Test System: AMES SALMONELLA TYPHIMURIUM, Strain/Indicator: TA102, Metabolic Activation: NONE, Method: PREINCUBATION active; positive | Test System: AMES SALMONELLA TYPHIMURIUM, Strain/Indicator: TA104, Metabolic Activation: NONE, Method: PREINCUBATION active; positive | Test System: CHINESE HAMSTER V-79, Strain/Indicator: V-79/6-THIOGUANINE, Metabolic Activation: NONE, Method: STANDARD PLATE active; positive
inactive: Test System: AMES SALMONELLA TYPHIMURIUM, Strain/Indicator: TA92, Metabolic Activation: NONE, Method: PREINCUBATION inactive; negative | [1] inactive; negative | [3] inactive; negative | [4] inactive; negative | [6] inactive; negative

OCNc1ncnc2c1ncn2[C@@H]1O[C@H](CO)[C@@H](O)[C@H]1O
active: Test System: AMES SALMONELLA TYPHIMURIUM, Strain/Indicator: TA100(TN5-1,8-DNP1012), Metabolic Activation: NONE, Method: STANDARD PLATE active; positive
inactive: Test System: AMES SALMONELLA TYPHIMURIUM, Strain/Indicator: TA100(TN5-1,8-DNP1011), Metabolic Activation: NONE, Method: STANDARD PLATE inactive; negative | [5] inactive; negative

O=[N+]([O-])c1ccc2cccc3c2c1C=C3
active: Test System: AMES SALMONELLA TYPHIMURIUM, Strain/Indicator: TA98, Metabolic Activation: NONE, Method: STANDARD PLATE active; positive
